In patent publication US8580824B2, “Pyridin-4-yl derivatives as immunomodulating agents” (Actelion Pharmaceuticals Ltd., priority 2006, dated 2013):

biological target: recombinant human S1P1 receptor (Homo sapiens, UniProt P21453); experiment: GTPγS assay to determine EC50 values; assay type: biochemical; settings: agonistic activity; membrane preparations of CHO cells expressing recombinant human S1P1 receptor; 35S-GTPγS binding
Description: i) GTPγS assay to determine EC50 values
GTPγS binding assays are performed in 96 well microtiter plates (Nunc, 442587) in a final volume of 200 μl, using membrane preparations of CHO cells expressing recombinant human S1P1 receptor. Assay conditions are 20 mM Hepes (Fluka, 54461), 100 mM NaCl (Fluka, 71378), 5 mM MgCl2 (Fluka, 63064), 0.1% BSA (Calbiochem, 126609), 1 μM GDP (Sigma, G-7127), 2.5% DMSO (Fluka, 41644), 50 pM ^35S-GTPγS (Amersham Biosciences, SJ1320). The pH is 7.4. Test compounds are dissolved and diluted in 100% DMSO and pre-incubated at room temperature for 30 min in 150 μl of the above assay buffer, in the absence of ^35S-GTPγS. After addition of 50 μl of ^35S-GTPγS, the assay is incubated for 1 h at rt. The assay is terminated by transfer of the reaction mixture to a Multiscreen plate (Millipore, MAHFC1H60) using a cell harvester from Packard Biosciences, and the plates are washed with ice-cold 10 mM Na2HPO4/NaH2PO4 (70%/30%), dried, sealed at the bottom and, after addition of 25 μl MicroScint20 (Packard Biosciences, order#6013621), sealed on the top. Membrane-bound ^35S-GTPγS is measured with a TopCount from Packard Biosciences.
EC50 is the concentration of agonist inducing 50% of the maximal specific ^35S-GTPγS binding. Specific binding is determined by subtracting non-specific binding from maximal binding. Maximal binding is the amount of cpm bound to the Multiscreen plate in the presence of 10 μM of S1P. Non-specific binding is the amount of binding in the absence of an agonist in the assay.

recombinant human S1P1 receptor, sequence (P21453 whole entry): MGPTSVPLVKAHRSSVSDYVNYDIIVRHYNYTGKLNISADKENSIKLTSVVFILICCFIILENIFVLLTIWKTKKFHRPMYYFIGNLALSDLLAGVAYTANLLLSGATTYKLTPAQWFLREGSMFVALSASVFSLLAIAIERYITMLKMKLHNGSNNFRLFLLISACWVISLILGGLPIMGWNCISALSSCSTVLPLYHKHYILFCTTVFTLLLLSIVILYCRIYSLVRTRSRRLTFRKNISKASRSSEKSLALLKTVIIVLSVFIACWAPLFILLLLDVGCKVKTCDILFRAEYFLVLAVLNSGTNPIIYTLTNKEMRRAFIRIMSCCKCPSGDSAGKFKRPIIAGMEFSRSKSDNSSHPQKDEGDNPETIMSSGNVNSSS

| SMILES | EC50 [nM] |
| --- | --- |
| Cc1cc(-c2noc(-c3cc(Cl)nc(CC(C)C)c3)n2)cc(C)c1OCC(O)CO (racemic) [Example 4, (RS)-3-{4-[5-(2-Chloro-6-isobutyl-pyridin-4-yl)-[1,2,4]oxadiazol-3-yl]-2,6-dimethyl-phenoxy}-propane-1,2-diol] | 0.7 |
| Cc1cc(-c2nc(-c3cc(C)c(OCC(O)CNC(=O)CO)c(C)c3)no2)cc(CC(C)C)n1 (racemic) [Example 11, 2-Hydroxy-N-((RS)-2-hydroxy-3-{4-[5-(2-isobutyl-6-methyl-pyridin-4-yl)-[1,2,4]oxadiazol-3-yl]-2,6-dimethyl-phenoxy}-propyl)-acetamide] | 0.2 |
| Cc1cc(-c2noc(-c3cc(Cl)nc(OC(C)C)c3)n2)cc(C)c1OCC(O)CNC(=O)CO (racemic) [Example 26, N-((RS)-3-{4-[5-(2-Chloro-6-isopropoxy-pyridin-4-yl)-[1,2,4]oxadiazol-3-yl]-2,6-dimethyl-phenoxy}-2-hydroxy-propyl)-2-hydroxy-acetamide] | 0.4 |
| CCOc1cc(-c2nc(-c3cc(C)c(OCC(O)CO)c(C)c3)no2)cc(C)n1 (racemic) [Example 27, (RS)-3-{4-[5-(2-Ethoxy-6-methyl-pyridin-4-yl)-[1,2,4]oxadiazol-3-yl]-2,6-dimethyl-phenoxy}-propane-1,2-diol] | 2.5 |
| CCc1cc(-c2nc(-c3cc(C)c(OC[C@H](O)CNC(=O)CO)c(Cl)c3)no2)cc(C)n1 [Example 60] | 0.5 |
| CCc1cc(-c2noc(-c3cc(C)c(OC[C@@H](O)CNC(=O)CO)c(CC)c3)n2)cc(C)n1 [Example 74] | 4.3 |
| CCCc1cc(-c2nc(-c3cc(C)c(O)c(CC)c3)no2)cc(C)n1 [Example 86] | 5.6 |

Further lines, results first:

| EC50 [nM] | SMILES |
| --- | --- |
| 0.4 | CCCc1cc(-c2nc(-c3cc(C)c(OCC(O)CNC(=O)CO)c(C)c3)no2)cc(C)n1 (centres unmarked) [Example 95] |
| 1.8 | CCCc1cc(-c2nnc(-c3cc(C)c(OC[C@@H](O)CNC(=O)CO)c(C)c3)o2)cc(C)n1 [Example 111] |
| 0.4 | CCCc1cc(-c2noc(-c3cc(C)nc(C(C)C)c3)n2)cc(C)c1OC[C@@H](O)CNC(=O)CO [Example 123] |
| 0.2 | Cc1cc(-c2nc(-c3cc(C)c(OCC(O)CNC(=O)CO)c(Cl)c3)no2)cc(CC(C)C)n1 (centres unmarked) [Example 145] |
| 0.7 | COc1cc(-c2noc(-c3cc(C)nc(CC(C)C)c3)n2)cc(Cl)c1OC[C@H](O)CNC(=O)CO [Example 160] |
| 0.8 | CCc1cc(-c2nnc(-c3cc(C)nc(CC(C)C)c3)o2)cc(C)c1OC[C@@H](O)CNC(=O)CO [Example 180] |
| 0.6 | CCc1cc(-c2noc(-c3cc(C)nc(C(CC)CC)c3)n2)cc(C)c1OC[C@@H](O)CO [Example 196] |
| 0.9 | CCc1cc(-c2noc(-c3cc(CC(C)C)nc(OC)c3)n2)cc(C)c1OC[C@@H](O)CNC(=O)CO [Example 226] |
| 5.8 | CCc1cc(-c2ncc(-c3cc(C)nc(CC(C)C)c3)o2)cc(C)c1OC[C@@H](O)CO [Example 235, (S)-3-{2-Ethyl-4-[5-(2-isobutyl-6-methyl-pyridin-4-yl)-oxazol-2-yl]-6-methyl-phenoxy}-propane-1,2-diol] |

test system: circulating lymphocytes in normotensive male Wistar rats; experiment: Assessment of in vivo efficacy: circulating lymphocytes after oral administration; parameters: species or system rat; settings: 6 h after oral administration of 10 mg/kg to normotensive male Wistar rats, compared to vehicle-treated group
Description: The efficacy of the compounds of Formula (I) is assessed by measuring the circulating lymphocytes after oral administration of 3 to 30 mg/kg of a compound of Formula (I) to normotensive male Wistar rats. The animals are housed in climate-controlled conditions with a 12 h-light/dark cycle, and have free access to normal rat chow and drinking water. Blood is collected before and 3, 6 and 24 h after drug administration. Full blood is subjected to hematology using Advia Hematology system (Bayer Diagnostics, Zurich, Switzerland).
All data are presented as mean±SEM. Statistical analyses are performed by analysis of variance (ANOVA) using Statistica (StatSoft) and the Student-Newman-Keuls procedure for multiple comparisons. The null hypothesis is rejected when p<0.05.
Lymphocyte counts 6 h after oral administration have been measured for 51 from 244 exemplified compounds (one being dosed at 3 mg/kg) and are in the range of −78% to −53% with an average of −67%.

| SMILES | Lymphocyte counts [%] |
| --- | --- |
| CCc1cc(-c2nc(-c3cc(C)c(OCC(O)CO)c(C)c3)no2)cc(C)n1 (racemic) [Example 8, (RS)-3-{4-[5-(2-Ethyl-6-methyl-pyridin-4-yl)-[1,2,4]oxadiazol-3-yl]-2,6-dimethyl-phenoxy}-propane-1,2-diol] | −62 |
| Cc1cc(-c2nc(-c3cc(C)c(OCC(O)CO)c(C)c3)no2)cc(CC(C)C)n1 (racemic) [Example 9, (RS)-3-{4-[5-(2-Isobutyl-6-methyl-pyridin-4-yl)-[1,2,4]oxadiazol-3-yl]-2,6-dimethyl-phenoxy}-propane-1,2-diol] | −67 |
| Cc1cc(-c2nc(-c3cc(C)c(OCC(O)CNC(=O)CO)c(C)c3)no2)cc(OC(C)C)n1 (racemic) [Example 30, 2-Hydroxy-N-((RS)-2-hydroxy-3-{4-[5-(2-isopropoxy-6-methyl-pyridin-4-yl)-[1,2,4]oxadiazol-3-yl]-2,6-dimethyl-phenoxy}-propyl)-acetamide] | −73 |
| COc1cc(-c2noc(-c3cc(C)nc(CC(C)C)c3)n2)cc(C)c1OCC(O)CNC(=O)CO (racemic) [Example 159, (RS)-2-Hydroxy-N-(2-hydroxy-3-{4-[5-(2-isobutyl-6-methyl-pyridin-4-yl)-[1,2,4]oxadiazol-3-yl]-2-methoxy-6-methyl-phenoxy}-propyl)-acetamide] | −74 |
